This is an account of results in patent US8404670B2 (Sunovion Pharmaceuticals Inc., priority 2009, dated 2013).

Structures are written as SMILES.

For the assay, the target named is T1, human histamine H3 receptor (Homo sapiens, UniProt Q9Y5N1).
T1 construct: host or cells: cells expressing the human H3 receptor
T1 sequence (Q9Y5N1 whole entry): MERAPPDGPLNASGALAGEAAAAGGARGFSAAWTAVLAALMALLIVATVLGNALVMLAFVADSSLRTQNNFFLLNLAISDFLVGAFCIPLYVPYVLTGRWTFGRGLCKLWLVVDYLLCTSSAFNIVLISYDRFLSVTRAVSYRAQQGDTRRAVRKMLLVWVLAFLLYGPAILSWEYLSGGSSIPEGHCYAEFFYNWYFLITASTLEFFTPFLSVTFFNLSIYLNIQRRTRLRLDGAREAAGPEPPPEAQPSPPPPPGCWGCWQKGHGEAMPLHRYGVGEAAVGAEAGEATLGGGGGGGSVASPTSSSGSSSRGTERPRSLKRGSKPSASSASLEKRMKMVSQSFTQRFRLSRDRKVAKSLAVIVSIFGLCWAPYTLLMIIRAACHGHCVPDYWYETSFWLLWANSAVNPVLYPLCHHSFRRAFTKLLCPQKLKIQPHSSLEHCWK
Put plainly: H3 GTPγS assay (SPA method), histamine H3 in vitro assay. It is filed as biochemical. The conditions noted are these: GTPγ[35S] binding to membranes of cells expressing human H3; antagonist mode with R-γ-Me-Histamine at EC80 (30 nM); in one embodiment HCl salts tested; read-out: Potency (functional potency as indicated by IC50).
Broadly, the IC50 is the concentration that gives 50% inhibition. As to `COc1cccc(-c2ccc3c(c2)nc2n3CCN(C3CCC3)CC2)n1` [Compound 137, 3-cyclobutyl-8-(6-methoxypyridin-2-yl)-2,3,4,5-tetrahydro-1H-benzo[4,5]imidazo[1,2-d][1,4]diazepine], the IC50 was no more than 100 nM. Turning to `NCCc1ccc2c(c1)nc1n2CCN(C2CCC2)CC1` [Compound 138, 2-(3-cyclobutyl-2,3,4,5-tetrahydro-1H-benzo[4,5]imidazo[1,2-d][1,4]diazepin-8-yl)ethanamine], the IC50 is no more than 100 nM. As for `CN(C)CCc1ccc2c(c1)nc1n2CCN(C2CCC2)CC1` [Compound 139, 2-(3-cyclobutyl-2,3,4,5-tetrahydro-1H-benzo[4,5]imidazo[1,2-d][1,4]diazepin-8-yl)-N,N-dimethylethanamine], the IC50 is no more than 100 nM. In the case of `NCc1ccc2c(c1)nc1n2CCN(C2CCC2)CC1` [Compound 140], the IC50 was no more than 100 nM. For `O=C(NCc1ccc2c(c1)nc1n2CCN(C2CCC2)CC1)OCc1ccccc1` [Compound 141, benzyl((3-cyclobutyl-2,3,4,5-tetrahydro-1H-benzo[4,5]imidazo[1,2-d][1,4]diazepin-8-yl)methyl)carbamate] the value was no more than 100 nM; for `CN(Cc1ccc2c(c1)nc1n2CCN(C2CCC2)CC1)C(=O)OCc1ccccc1` [Compound 142, benzyl((3-cyclobutyl-2,3,4,5-tetrahydro-1H-benzo[4,5]imidazo[1,2-d][1,4]diazepin-8-yl)methyl)(methyl)carbamate], no more than 100 nM. Consider `O=C1c2cc3nc4n(c3cc2C(=O)N1Cc1ccccc1)CCN(C1CCC1)CC4` [Compound 143, 2-benzyl-8-cyclobutyl-7,8,9,10-tetrahydro-[1,4]diazepino[1′,7′:1,2]imidazo[4,5-f]isoindole-1,3(2H,6H)-dione], for which the IC50 was no less than 1000 nM.

Turning to `c1ccc(CN2Cc3cc4nc5n(c4cc3C2)CCN(C2CCC2)CC5)cc1` [Compound 144, 2-benzyl-8-cyclobutyl-1,2,3,6,7,8,9,10-octahydro-[1,4]diazepino[1′,7′:1,2]imidazo[4,5-f]isoindole], the IC50 was no more than 10 nM. For `c1c2c(cc3c1nc1n3CCN(C3CCC3)CC1)CNC2` [Compound 145, 8-cyclobutyl-1,2,3,6,7,8,9,10-octahydro-[1,4]diazepino[1′,7′:1,2]imidazo[4,5-f]isoindole] the value was no more than 10 nM; for `CN1Cc2cc3nc4n(c3cc2C1)CCN(C1CCC1)CC4` [Compound 146, 8-cyclobutyl-2-methyl-1,2,3,6,7,8,9,10-octahydro-[1,4]diazepino[1′,7′:1,2]imidazo[4,5-f]isoindole], no more than 10 nM. For `c1c2c(cc3c1nc1n3CCN(C3CCC3)CC1)CN(CC1CC1)C2` [Compound 147, 8-cyclobutyl-2-(cyclopropylmethyl)-1,2,3,6,7,8,9,10-octahydro-[1,4]diazepino[1′,7′:1,2]imidazo[4,5-f]isoindole], the IC50 is no more than 10 nM. For `c1cnc(N2Cc3cc4nc5n(c4cc3C2)CCN(C2CCC2)CC5)nc1` [Compound 148, 8-cyclobutyl-2-(pyrimidin-2-yl)-1,2,3,6,7,8,9,10-octahydro-[1,4]diazepino[1′,7′:1,2]imidazo[4,5-f]isoindole] the value was no more than 100 nM; for `c1cnc(N2Cc3cc4nc5n(c4cc3C2)CCN(C2CCC2)CC5)cn1` [Compound 149, 8-cyclobutyl-2-(pyrazin-2-yl)-1,2,3,6,7,8,9,10-octahydro-[1,4]diazepino[1′,7′:1,2]imidazo[4,5-f]isoindole], no less than 1000 nM.

Take `c1cn(-c2ccc3c(c2)nc2n3CCN(C3CCC3)CC2)nn1` [Compound 150, 3-cyclobutyl-8-(1H-1,2,3-triazol-1-yl)-2,3,4,5-tetrahydro-1H-benzo[4,5]imidazo[1,2-d][1,4]diazepine]: the IC50 was no more than 100 nM. As for `c1cnn(-c2ccc3c(c2)nc2n3CCN(C3CCC3)CC2)n1` [Compound 151, 3-cyclobutyl-8-(2H-1,2,3-triazol-2-yl)-2,3,4,5-tetrahydro-1H-benzo[4,5]imidazo[1,2-d][1,4]diazepine], the IC50 was no more than 100 nM. As for `c1ncn(-c2ccc3c(c2)nc2n3CCN(C3CCC3)CC2)n1` [Compound 152, 3-cyclobutyl-8-(1H-1,2,4-triazol-1-yl)-2,3,4,5-tetrahydro-1H-benzo[4,5]imidazo[1,2-d][1,4]diazepine], the IC50 was no more than 100 nM. For `c1cc2c(cc1-n1cnnn1)nc1n2CCN(C2CCC2)CC1` [Compound 154, 3-cyclobutyl-8-(1H-tetrazol-1-yl)-2,3,4,5-tetrahydro-1H-benzo[4,5]imidazo[1,2-d][1,4]diazepine] the value was no more than 100 nM; for `Cc1nnnn1-c1ccc2c(c1)nc1n2CCN(C2CCC2)CC1` [Compound 156, 3-cyclobutyl-8-(5-methyl-1H-tetrazol-1-yl)-2,3,4,5-tetrahydro-1H-benzo[4,5]imidazo[1,2-d][1,4]diazepine], no more than 100 nM.

Regarding `Cc1nncn1-c1ccc2c(c1)nc1n2CCN(C2CCC2)CC1` [Compound 157, 3-cyclobutyl-8-(3-methyl-4H-1,2,4-triazol-4-yl)-2,3,4,5-tetrahydro-1H-benzo[4,5]imidazo[1,2-d][1,4]diazepine], the IC50 was no more than 100 nM. `FC1CCN(Cc2ccc3c(c2)nc2n3CCN(C3CCC3)CC2)CC1` [Compound 159, 3-cyclobutyl-8-((4-fluoropiperidin-1-yl)methyl)-2,3,4,5-tetrahydro-1H-benzo[4,5]imidazo[1,2-d][1,4]diazepine]: the IC50 is no more than 10 nM.

Turning to `FC1(F)CCN(Cc2ccc3c(c2)nc2n3CCN(C3CCC3)CC2)CC1` [Compound 160, 3-cyclobutyl-8-((4,4-difluoropiperidin-1-yl)methyl)-2,3,4,5-tetrahydro-1H-benzo[4,5]imidazo[1,2-d][1,4]diazepine], the IC50 was no more than 10 nM. Turning to `FC1CCCN(Cc2ccc3c(c2)nc2n3CCN(C3CCC3)CC2)C1` (stereo not drawn) [Compound 161, 3-cyclobutyl-8-((3-fluoropiperidin-1-yl)methyl)-2,3,4,5-tetrahydro-1H-benzo[4,5]imidazo[1,2-d][1,4]diazepine], the IC50 was no more than 10 nM. As to `FC1(F)CCCN(Cc2ccc3c(c2)nc2n3CCN(C3CCC3)CC2)C1` [Compound 162, 3-cyclobutyl-8-((3,3-difluoropiperidin-1-yl)methyl)-2,3,4,5-tetrahydro-1H-benzo[4,5]imidazo[1,2-d][1,4]diazepine], the IC50 was no more than 10 nM.

Regarding `c1ccc2c(c1)CCN(Cc1ccc3c(c1)nc1n3CCN(C3CCC3)CC1)C2` [Compound 163, 3-cyclobutyl-8-((3,4-dihydroisoquinolin-2(1H)-yl)methyl)-2,3,4,5-tetrahydro-1H-benzo[4,5]imidazo[1,2-d][1,4]diazepine], the IC50 was no more than 10 nM. Take `Fc1ccc2c(c1)CCN(Cc1ccc3c(c1)nc1n3CCN(C3CCC3)CC1)C2` [Compound 164, 3-cyclobutyl-8-((6-fluoro-3,4-dihydroisoquinolin-2(1H)-yl)methyl)-2,3,4,5-tetrahydro-1H-benzo[4,5]imidazo[1,2-d][1,4]diazepine]: the IC50 was no more than 10 nM. For the compound `FC1CCN(Cc2ccc3c(c2)nc2n3CCN(C3CCC3)CC2)C1` (stereo not drawn) [Compound 165, 3-cyclobutyl-8-((3-fluoropyrrolidin-1-yl)methyl)-2,3,4,5-tetrahydro-1H-benzo[4,5]imidazo[1,2-d][1,4]diazepine], the IC50 is no more than 100 nM. For `FC1(F)CCN(Cc2ccc3c(c2)nc2n3CCN(C3CCC3)CC2)C1` [Compound 166, 3-cyclobutyl-8-((3,3-difluoropyrrolidin-1-yl)methyl)-2,3,4,5-tetrahydro-1H-benzo[4,5]imidazo[1,2-d][1,4]diazepine] the value was no more than 10 nM; for `CC(=O)N1CCN(c2ccc3c(c2)nc2n3CCN(C3CCC3)CC2)CC1` [Compound 167, 1-(4-(3-cyclobutyl-2,3,4,5-tetrahydro-1H-benzo[4,5]imidazo[1,2-d][1,4]diazepin-8-yl)piperazin-1-yl)ethanone], no more than 10 nM. Take `N#Cc1ccc(C(=O)N2CCN(c3ccc4c(c3)nc3n4CCN(C4CCC4)CC3)CC2)cc1` [Compound 168, 4-(4-(3-cyclobutyl-2,3,4,5-tetrahydro-1H-benzo[4,5]imidazo[1,2-d][1,4]diazepin-8-yl)piperazine-1-carbonyl)benzonitrile]: the IC50 was no more than 10 nM. On to `O=C(c1cnccn1)N1CCN(c2ccc3c(c2)nc2n3CCN(C3CCC3)CC2)CC1` [Compound 169, (4-(3-cyclobutyl-2,3,4,5-tetrahydro-1H-benzo[4,5]imidazo[1,2-d][1,4]diazepin-8-yl)piperazin-1-yl)(pyrazin-2-yl)methanone], for which the IC50 is no more than 100 nM.

For the compound `O=C(C1CC1)N1CCN(c2ccc3c(c2)nc2n3CCN(C3CCC3)CC2)CC1` [Compound 170, (4-(3-cyclobutyl-2,3,4,5-tetrahydro-1H-benzo[4,5]imidazo[1,2-d][1,4]diazepin-8-yl)piperazin-1-yl)(cyclopropyl)methanone], the IC50 was no more than 10 nM.

`CC(=O)N1CCCC(c2ccc3c(c2)nc2n3CCN(C3CCC3)CC2)C1` (stereo not drawn) [Compound 171, 1-(3-(3-cyclobutyl-2,3,4,5-tetrahydro-1H-benzo[4,5]imidazo[1,2-d][1,4]diazepin-8-yl)piperidin-1-yl)ethanone]: the IC50 was no more than 10 nM. For `N#Cc1ccc(C(=O)N2CCCC(c3ccc4c(c3)nc3n4CCN(C4CCC4)CC3)C2)cc1` (stereo not drawn) [Compound 172, 4-(3-(3-cyclobutyl-2,3,4,5-tetrahydro-1H-benzo[4,5]imidazo[1,2-d][1,4]diazepin-8-yl)piperidine-1-carbonyl)benzonitrile] the value was no more than 100 nM; for `O=C(c1cnccn1)N1CCCC(c2ccc3c(c2)nc2n3CCN(C3CCC3)CC2)C1` (stereo not drawn) [Compound 173, (3-(3-cyclobutyl-2,3,4,5-tetrahydro-1H-benzo[4,5]imidazo[1,2-d][1,4]diazepin-8-yl)piperidin-1-yl)(pyrazin-2-yl)methanone], no more than 100 nM; for `O=C(C1CCC1)N1CCCC(c2ccc3c(c2)nc2n3CCN(C3CCC3)CC2)C1` (stereo not drawn) [Compound 174], no more than 10 nM.

On to `c1cc2c(cc1N1CCCCC1)nc1n2CCN(C2CCC2)CC1` [Compound 175, 3-cyclobutyl-8-(piperidin-1-yl)-2,3,4,5-tetrahydro-1H-benzo[4,5]imidazo[1,2-d][1,4]diazepine], for which the 50% inhibitory concentration (IC50) was no more than 10 nM.
